pIC50: −log10 of the molar value.
Key:
[1] = target: T1, PI3K α (p110α/p85α) (Homo sapiens, UniProt P42336); assay: PI 3-Kinase (human) HTRF assay, PI3K α; format: biochemical; settings: read-out: PI3K α IC50
T1 construct: purchased Upstate / Millipore Corporation

[2] = test system: T47D; assay: T47D proliferation; format: cell-based; settings: Homo sapiens; T47D cell line
[3] = target: T2, PI3K δ (Homo sapiens, UniProt O00329); assay: PI 3-Kinase (human) HTRF assay, PI3K δ; format: biochemical; settings: read-out: PI3K δ IC50
T2 construct: purchased Upstate / Millipore Corporation
T2 sequence (O00329 whole entry): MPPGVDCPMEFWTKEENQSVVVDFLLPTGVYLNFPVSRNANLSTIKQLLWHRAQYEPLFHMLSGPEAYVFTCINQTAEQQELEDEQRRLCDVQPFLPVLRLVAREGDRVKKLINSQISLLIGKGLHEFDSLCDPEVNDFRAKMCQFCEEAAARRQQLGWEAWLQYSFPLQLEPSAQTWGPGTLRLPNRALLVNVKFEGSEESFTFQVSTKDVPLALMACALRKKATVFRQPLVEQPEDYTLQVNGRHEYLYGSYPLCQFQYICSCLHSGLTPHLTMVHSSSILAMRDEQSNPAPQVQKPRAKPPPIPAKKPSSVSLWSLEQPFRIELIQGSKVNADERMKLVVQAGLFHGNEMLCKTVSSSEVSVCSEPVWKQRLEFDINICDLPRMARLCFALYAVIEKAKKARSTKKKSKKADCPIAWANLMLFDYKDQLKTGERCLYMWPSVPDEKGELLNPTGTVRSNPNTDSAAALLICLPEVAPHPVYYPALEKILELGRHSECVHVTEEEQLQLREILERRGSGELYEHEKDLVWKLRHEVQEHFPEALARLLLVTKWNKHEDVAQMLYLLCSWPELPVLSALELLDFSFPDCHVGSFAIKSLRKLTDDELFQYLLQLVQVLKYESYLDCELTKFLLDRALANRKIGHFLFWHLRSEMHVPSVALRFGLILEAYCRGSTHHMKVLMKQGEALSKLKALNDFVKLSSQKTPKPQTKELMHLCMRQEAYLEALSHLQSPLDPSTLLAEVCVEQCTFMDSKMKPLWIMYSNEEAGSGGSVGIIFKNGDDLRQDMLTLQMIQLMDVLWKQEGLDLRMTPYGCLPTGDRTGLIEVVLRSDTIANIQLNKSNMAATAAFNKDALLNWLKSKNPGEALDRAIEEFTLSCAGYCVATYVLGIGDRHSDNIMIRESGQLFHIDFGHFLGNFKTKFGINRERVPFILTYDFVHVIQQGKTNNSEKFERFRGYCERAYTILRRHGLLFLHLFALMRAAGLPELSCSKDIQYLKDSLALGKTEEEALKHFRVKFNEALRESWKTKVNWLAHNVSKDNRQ
T2 sequence (P27986 whole entry partner): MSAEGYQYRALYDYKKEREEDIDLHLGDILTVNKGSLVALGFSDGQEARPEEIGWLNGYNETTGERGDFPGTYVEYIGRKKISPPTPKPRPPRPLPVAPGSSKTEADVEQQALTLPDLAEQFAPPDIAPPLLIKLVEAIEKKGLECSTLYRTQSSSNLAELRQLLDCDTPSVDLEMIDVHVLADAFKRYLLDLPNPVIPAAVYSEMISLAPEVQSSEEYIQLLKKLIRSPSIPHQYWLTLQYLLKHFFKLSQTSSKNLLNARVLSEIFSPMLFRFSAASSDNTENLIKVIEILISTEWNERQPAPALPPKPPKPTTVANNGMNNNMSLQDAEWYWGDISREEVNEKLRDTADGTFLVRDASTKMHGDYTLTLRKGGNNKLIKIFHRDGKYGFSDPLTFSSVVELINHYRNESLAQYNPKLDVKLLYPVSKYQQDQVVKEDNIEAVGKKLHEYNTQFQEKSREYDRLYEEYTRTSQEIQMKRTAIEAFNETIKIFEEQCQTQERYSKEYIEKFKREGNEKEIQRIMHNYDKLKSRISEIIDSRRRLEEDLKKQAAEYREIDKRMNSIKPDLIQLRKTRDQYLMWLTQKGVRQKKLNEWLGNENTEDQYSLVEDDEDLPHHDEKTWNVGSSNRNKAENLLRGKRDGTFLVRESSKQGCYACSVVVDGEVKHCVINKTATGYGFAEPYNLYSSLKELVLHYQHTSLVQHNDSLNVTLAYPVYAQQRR
Protocol: Briefly, the assay is a time resolved FRET assay that indirectly measures PIP3 product formed by the activity of a PI3-K. The kinase reaction is performed in a microtiter plate (e.g., a 384 well microtiter plate). The total reaction volume is approximately 20 ul per well. In the first step, each well receives 2 ul of test compound in 20% dimethylsulphoxide resulting in a 2% DMSO final concentration. […] The plate is sealed and incubated for 15 minutes at room temperature. […] The plate is sealed and incubated for 1 hour at room temperature. The reaction is stopped by adding 5 ul of Stop Solution per well and then 5 ul of Detection Mix is added per well. The plate is sealed, incubated for 1 hour at room temperature, and then read on an appropriate plate reader. Data is analyzed and IC50s are generated using GraphPad Prism 5.

[4] = target: T3, PI3K β (p110β/p85α) (Homo sapiens, UniProt P42338); assay: PI 3-Kinase (human) HTRF assay, PI3K β; format: biochemical; settings: read-out: PI3K β IC50
T3 construct: purchased Upstate / Millipore Corporation
T3 sequence (P42338 whole entry): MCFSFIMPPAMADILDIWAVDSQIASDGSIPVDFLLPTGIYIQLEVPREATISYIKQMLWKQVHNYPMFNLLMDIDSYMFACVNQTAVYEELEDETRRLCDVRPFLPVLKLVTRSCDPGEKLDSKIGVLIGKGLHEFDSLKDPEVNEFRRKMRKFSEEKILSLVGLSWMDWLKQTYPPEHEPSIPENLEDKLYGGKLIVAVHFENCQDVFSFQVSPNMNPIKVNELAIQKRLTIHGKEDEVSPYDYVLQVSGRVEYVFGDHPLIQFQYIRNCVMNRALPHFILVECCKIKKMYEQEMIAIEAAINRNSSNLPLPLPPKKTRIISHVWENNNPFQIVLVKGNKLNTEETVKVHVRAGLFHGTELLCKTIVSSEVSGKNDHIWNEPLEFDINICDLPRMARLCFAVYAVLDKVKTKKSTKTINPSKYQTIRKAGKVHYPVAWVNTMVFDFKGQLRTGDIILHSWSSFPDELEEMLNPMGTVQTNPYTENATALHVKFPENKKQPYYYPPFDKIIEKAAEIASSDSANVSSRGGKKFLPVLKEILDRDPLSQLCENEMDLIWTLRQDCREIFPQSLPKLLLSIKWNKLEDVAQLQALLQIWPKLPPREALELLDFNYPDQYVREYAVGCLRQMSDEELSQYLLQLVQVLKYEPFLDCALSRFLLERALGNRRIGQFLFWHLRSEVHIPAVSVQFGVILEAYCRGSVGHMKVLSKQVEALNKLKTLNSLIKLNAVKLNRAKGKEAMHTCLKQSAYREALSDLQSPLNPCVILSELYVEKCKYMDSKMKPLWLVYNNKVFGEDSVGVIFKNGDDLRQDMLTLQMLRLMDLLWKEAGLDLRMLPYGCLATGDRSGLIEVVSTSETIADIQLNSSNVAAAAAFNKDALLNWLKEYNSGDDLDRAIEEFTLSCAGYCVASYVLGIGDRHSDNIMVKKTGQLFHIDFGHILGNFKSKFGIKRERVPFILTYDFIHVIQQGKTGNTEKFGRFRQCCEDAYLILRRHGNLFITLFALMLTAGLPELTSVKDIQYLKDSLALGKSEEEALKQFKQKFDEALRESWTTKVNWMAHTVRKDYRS
T3 sequence (P27986 whole entry partner): as the sequence (P27986 whole entry partner) above

[5] = target: T4, PI3K γ (p110γ) (Homo sapiens, UniProt P48736); assay: PI 3-Kinase (human) HTRF assay, PI3K γ; format: biochemical; settings: read-out: PI3K γ IC50
T4 construct: purchased Upstate / Millipore Corporation
T4 sequence (P48736 whole entry): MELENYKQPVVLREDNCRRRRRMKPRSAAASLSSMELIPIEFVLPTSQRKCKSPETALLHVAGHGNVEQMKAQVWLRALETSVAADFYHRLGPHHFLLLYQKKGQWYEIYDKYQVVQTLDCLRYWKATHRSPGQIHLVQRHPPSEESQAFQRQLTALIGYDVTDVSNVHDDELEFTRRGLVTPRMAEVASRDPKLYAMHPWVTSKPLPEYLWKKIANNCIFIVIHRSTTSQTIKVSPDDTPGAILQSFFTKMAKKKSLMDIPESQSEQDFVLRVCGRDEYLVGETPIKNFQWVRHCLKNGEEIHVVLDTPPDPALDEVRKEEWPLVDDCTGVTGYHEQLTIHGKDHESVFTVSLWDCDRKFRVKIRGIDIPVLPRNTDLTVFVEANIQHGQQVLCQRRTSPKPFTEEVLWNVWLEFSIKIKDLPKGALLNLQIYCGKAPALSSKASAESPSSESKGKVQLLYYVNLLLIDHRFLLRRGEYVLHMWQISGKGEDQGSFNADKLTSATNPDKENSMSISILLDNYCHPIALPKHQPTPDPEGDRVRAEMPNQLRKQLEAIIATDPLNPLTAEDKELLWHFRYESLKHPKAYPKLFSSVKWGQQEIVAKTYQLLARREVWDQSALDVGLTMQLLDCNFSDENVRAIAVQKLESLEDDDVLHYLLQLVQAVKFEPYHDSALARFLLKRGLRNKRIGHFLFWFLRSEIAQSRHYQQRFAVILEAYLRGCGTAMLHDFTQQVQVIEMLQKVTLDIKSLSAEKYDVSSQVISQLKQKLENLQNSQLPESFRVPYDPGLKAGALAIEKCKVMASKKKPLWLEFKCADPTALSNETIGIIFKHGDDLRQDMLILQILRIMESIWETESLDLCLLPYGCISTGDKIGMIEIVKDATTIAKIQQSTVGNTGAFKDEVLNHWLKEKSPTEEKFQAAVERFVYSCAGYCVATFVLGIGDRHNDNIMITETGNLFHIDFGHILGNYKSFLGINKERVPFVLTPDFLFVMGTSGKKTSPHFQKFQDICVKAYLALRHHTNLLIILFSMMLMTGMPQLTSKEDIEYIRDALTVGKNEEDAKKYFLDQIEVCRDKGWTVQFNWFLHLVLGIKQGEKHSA

[6] = test system: MZB cells; assay: MZB cells in mouse spleen (FIG. 9, right panel); format: in vivo; settings: 70 mg/kg Pan-PI3K inhibitor compared to 60 mg/kg Compound A
[7] = test system: marginal zone B cells; assay: Marginal zone B cells in mouse spleen (FACS); format: in vivo; settings: 70 mg/kg, spleens harvested 2 hrs after the last dose, FIG. 9
Protocol: The effect of the compounds on the localization/viability of marginal zone B cells in the spleen is also evaluated at the conclusion of treatment.
Spleens were harvested 2 hrs after the last dose, processed and stained with appropriate antibodies (marginal zone B cell: B220+;CD23−;CD21hi) and analyzed for staining on GUAVA EasyCyte FACS machine using Guava Cytosoft 5.2 software.

[8] = test system: preclinical breast cancer model; assay: Preclinical breast cancer model, tumor weight / volume; format: in vivo; settings: 70 mg/kg Pan-PI3K inhibitor; 60 mg/kg compound A; FIG. 9 left panel
[9] = test system: B cell function; assay: TNP-Ficoll immunization, antibody production (FIG. 8); format: in vivo; settings: mice immunized with TNP-Ficoll, 7 days, 70 mg/kg GDC0941, 30, 60 or 120 mg/kg Compound A
Protocol: Mice were immunized with TNP-Ficoll and treated with 1) vehicle; 2) 70 mg/kg GDC0941; 3) 30 mg/kg Compound A; 4) 60 mg/kg Compound A; or 5) 120 mg/kg Compound A for 7 days. Antibody production was measured as a percentage of control group that were treated with vehicle.

[10] = test system: MDA-MB-361 (PI3Kα/HER2 carcinoma) tumors; assay: In vivo efficacy in xenogenic mouse model of breast cancer; set-up: species or system Nude mice; settings: 70 mg/kg, FIG. 9 left panel
Protocol: Blood glucose was monitored periodically following administration of treatment.
Treatment of tumors (MDA-MB-361) with compounds was discontinued on Day 30. Tumors were measured every 2-5 days.

[11] = test system: anti-TNP antibody production; assay: TNP-Ficoll T-cell independent B-cell activation assay; format: in vivo, mice; settings: 70 mg/kg GDC0941 for 7 days, FIG. 8
Protocol: To test the effects of the compounds of the present invention in suppressing T cell independent antibody production, the TNP-Ficoll B-cell activation assay is used as described herein. Compounds of the present invention are dissolved in an appropriate vehicle (e.g. 5% 1-methyl-2-pyrrolidinone, 85% polyethylene glycol 400, 10% Solutor). Compounds are administered orally approximately 1 hr before TNP-Ficoll treatment to 4-10 week old mice. To study the effects of the compounds on B-cell activation, one set of mice are grouped according to the following table:
Four animals in group 1, and eight animals in groups 2 to 7 are euthanized in CO2 2 hours after the last compound administration on day 7. […]
Serum samples are analyzed for anti-TNP antibody titers by ELISA as described herein. […] HRP substrate (200 μl ABTS solution+30% H2O2+10 ml citrate buffer) is added to each well at 100 μl/well, incubated 2-20 minutes in the dark and the amount of anti-TNP IgG3 is determined spectrophotometrically at 405 nm. Similarly, anti-TNP IgM and total anti-TNP Ab are determined using anti-mouse IgM-HRP and anti-mouse Ig-HRP respectively.
Antibody production was measured using ELISA and plotted as a percentage of control group that were treated with vehicle.

T1 sequence (P42336 whole entry): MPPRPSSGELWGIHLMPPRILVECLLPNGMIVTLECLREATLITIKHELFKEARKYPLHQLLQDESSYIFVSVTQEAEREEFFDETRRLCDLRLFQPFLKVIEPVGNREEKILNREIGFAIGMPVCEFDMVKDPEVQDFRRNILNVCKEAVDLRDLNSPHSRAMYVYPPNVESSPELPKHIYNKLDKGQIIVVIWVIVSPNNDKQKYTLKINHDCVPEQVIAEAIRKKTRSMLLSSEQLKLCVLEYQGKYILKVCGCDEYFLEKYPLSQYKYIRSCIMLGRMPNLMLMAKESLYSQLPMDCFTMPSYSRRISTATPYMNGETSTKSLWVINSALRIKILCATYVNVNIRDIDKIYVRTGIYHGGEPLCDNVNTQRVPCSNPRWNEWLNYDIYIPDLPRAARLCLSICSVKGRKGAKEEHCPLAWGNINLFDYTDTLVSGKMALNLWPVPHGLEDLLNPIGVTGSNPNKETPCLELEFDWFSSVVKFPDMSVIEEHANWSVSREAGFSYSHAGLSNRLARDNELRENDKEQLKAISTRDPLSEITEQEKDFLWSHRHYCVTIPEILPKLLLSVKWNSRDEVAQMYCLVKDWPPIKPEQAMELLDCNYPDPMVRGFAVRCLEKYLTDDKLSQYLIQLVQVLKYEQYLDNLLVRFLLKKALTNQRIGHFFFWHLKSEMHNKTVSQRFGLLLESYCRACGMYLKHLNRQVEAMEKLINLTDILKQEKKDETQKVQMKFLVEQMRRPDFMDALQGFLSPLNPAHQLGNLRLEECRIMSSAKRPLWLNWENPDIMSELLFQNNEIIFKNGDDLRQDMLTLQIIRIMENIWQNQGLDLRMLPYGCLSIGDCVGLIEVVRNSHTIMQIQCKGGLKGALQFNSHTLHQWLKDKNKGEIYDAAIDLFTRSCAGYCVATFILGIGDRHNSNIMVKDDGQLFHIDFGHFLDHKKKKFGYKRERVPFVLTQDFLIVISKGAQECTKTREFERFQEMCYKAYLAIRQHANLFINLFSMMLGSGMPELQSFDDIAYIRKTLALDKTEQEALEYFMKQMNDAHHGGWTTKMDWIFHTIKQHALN
T1 sequence (P27986 whole entry partner): as the sequence (P27986 whole entry partner) above

| SMILES | pIC50 [1] | pIC50 [2] | pIC50 [3] | pIC50 [4] | pIC50 [5] | presence of MZB cells in mouse spleen [6] | presence of MZB cells in mouse spleen [7] | tumor weight of a breast cancer model [8] | B cell function in vivo (antibody production as percentage of vehicle control) [9] | tumor weight [10] | B cell function in vivo (antibody production, ELISA) [11] |
| --- | --- | --- | --- | --- | --- | --- | --- | --- | --- | --- | --- |
| Nc1nc2cc(-c3ccc4nnc(C(=O)N5CCOCC5)n4c3)ccc2o1 [Compound 282] | < 5.00 | < 5.00 | < 5.00 | < 5.00 | < 5.00 |  |  |  |  |  |  |
| CS(=O)(=O)N1CCN(Cc2cc3nc(-c4cccc5[nH]ncc45)nc(N4CCOCC4)c3s2)CC1 [Pan-PI3K inhibitor, reference compound] |  |  |  |  |  | reduced presence of MZB cells | reduced presence of MZB cells | reduction in tumor weight | blocks B cell function in vivo | reduction in tumor weight | blocks B cell function in vivo |

Reference: patent US20150087627A1, “COMBINATION OF KINASE INHIBITORS AND USES THEREOF” (Intellikine LLC, priority 2011, published 2015)
